Laboratory results as given in ChEMBL document CHEMBL2202991, “The effect of the length and flexibility of the side chain of basic amino acids on the binding of antimicrobial peptides to zwitterionic and anionic membrane model systems” (Bioorg Med Chem, 2012).
Activity calls are given as the source filed them. The calls are words filed in the database; no cut-off is given here. Non-standard residues stand in square brackets, D forms with d. Residues, ends and D or L forms follow the SMILES beside them. ξ: configuration not given here. Pro(3ξ,4ξ-(CH2)4) = O=C(O)[C@H]1NCC2CCCCC21; Tic = O=C(O)[C@@H]1Cc2ccccc2CN1; ξR = N=C(N)NCCCC(N)C(=O)O; Dab = NCC[C@H](N)C(=O)O; Dap = NC[C@H](N)C(=O)O

Tests used:
Lipid bilayer [1] = experiment: Binding affinity to 4:1 POPC/POPG large unilamellar vesicle assessed as lipid:compound molar ratio for complete interaction at 0.2 mM by isothermal titration calorimetric analysis
Lipid bilayer [2] = experiment: Binding affinity to POPC large unilamellar vesicle at 0.2 mM by isothermal titration calorimetric analysis
Lipid bilayer [3] = experiment: Binding affinity to POPC large unilamellar vesicle assessed as lipid:compound molar ratio for complete interaction at 0.2 mM by isothermal titration calorimetric analysis
Lipid bilayer [4] = experiment: Binding affinity to 4:1 POPC/POPG small unilamellar vesicle at 100 uM by circular dichroism analysis
Lipid bilayer [5] = experiment: Binding affinity to POPC large unilamellar vesicle at 100 uM by pseudo titration based circular dichroism analysis
Lipid bilayer [6] = experiment: Binding affinity to 4:1 POPC/POPG large unilamellar vesicle assessed as lipid:compound molar ratio required for integration into membrane at 100 uM by pseudo titration-based circular dichroism analysis
Lipid bilayer [7] = experiment: Binding affinity to 4:1 POPC/POPG large unilamellar vesicle at 100 uM by circular dichroism analysis
Lipid bilayer [8] = experiment: Binding affinity to POPC small unilamellar vesicle at 100 uM by circular dichroism analysis
Lipid bilayer [9] = experiment: Binding affinity to POPC large unilamellar vesicle at 100 uM by circular dichroism analysis
[10] = Binding affinity to zwitterionic dodecylphosphocholine micelle at 100 uM by circular dichroism analysis
[11] = Binding affinity to anionic sodium dodecyl sulfate micelle at 100 uM by circular dichroism analysis
Lipid bilayer [12] = experiment: Binding affinity to 4:1 POPC/POPG large unilamellar vesicles assessed as calcein leakage at 4 uM measured up to 90 mins by fluorimetric analysis
Lipid bilayer [13] = experiment: Binding affinity to 4:1 POPC/POPG large unilamellar vesicles assessed as calcein leakage at 20 uM measured up to 90 mins by fluorimetric analysis
Lipid bilayer [14] = experiment: Binding affinity to POPC large unilamellar vesicles assessed as calcein leakage at 4 uM measured up to 90 mins by fluorimetric analysis
Lipid bilayer [15] = experiment: Binding affinity to POPC large unilamellar vesicles assessed as calcein leakage at 20 uM measured up to 90 mins by fluorimetric analysis
Lipid bilayer [16] = experiment: Binding affinity to 4:1 POPC/POPG large unilamellar vesicles assessed as calcein leakage at 4 to 20 uM measured up to 90 mins by fluorimetric analysis
Lipid bilayer [17] = experiment: Binding affinity to POPC large unilamellar vesicles assessed as calcein leakage at 4 to 20 uM measured up to 90 mins by fluorimetric analysis
Lipid bilayer [18] = experiment: Binding affinity to 4:1 POPC/POPG large unilamellar vesicle assessed as lipid:compound molar ratio required for integration into membrane at 200 uM by pseudo titration-based circular dichroism analysis
Lipid bilayer [19] = experiment: Binding affinity to POPC large unilamellar vesicle at 200 uM by pseudo titration based circular dichroism analysis
Lipid bilayer [20] = experiment: Binding affinity to POPC large unilamellar vesicle at 200 uM by circular dichroism analysis
Lipid bilayer [21] = experiment: Binding affinity to 4:1 POPC/POPG large unilamellar vesicle at 200 uM by pseudo titration-based circular dichroism analysis

CC(=O)NCC(=O)N[C@@H](Cc1ccccc1)C(=O)N1Cc2ccccc2C[C@H]1C(=O)N1CC2CCCCC2[C@H]1C(=O)NCC(=O)NC(CCCNC(=N)N)C(=O)N1Cc2ccccc2C[C@H]1C(=O)N1CC2CCCCC2[C@H]1C(=O)NCC(=O)N[C@@H](Cc1ccccc1)C(=O)N1Cc2ccccc2C[C@H]1C(=O)N1CC2CCCCC2[C@H]1C(=O)NCC(=O)N[C@@H](CCCNC(=N)N)C(=O)N1Cc2ccccc2C[C@H]1C(=O)N[C@@H](CCCNC(=N)N)C(=O)N[C@@H](CCCNC(=N)N)C(=O)N[C@@H](CCCNC(=N)N)C(=O)N[C@@H](CCCNC(=N)N)C(N)=O (some centres not stated) (Ac-GF[Tic][Pro(3ξ,4ξ-(CH2)4)]G[ξR][Tic][Pro(3ξ,4ξ-(CH2)4)]GF[Tic][Pro(3ξ,4ξ-(CH2)4)]GR[Tic]RRRR-NH2)
Activity (Lipid bilayer [1]): 30 molar ratio | Kb (Lipid bilayer [2]): 479 M⁻¹ | Activity (Lipid bilayer [3]): 150 molar ratio | Activity (Lipid bilayer [4]): Active | Activity (Lipid bilayer [5]): Active | Activity (Lipid bilayer [6]): 52 molar ratio | Activity (Lipid bilayer [7]): Active | Activity (Lipid bilayer [8]): Active | Activity (Lipid bilayer [9]): Active | Activity [10]: Active | Activity [11]: Active | Activity (Lipid bilayer [12]): 50% | Activity (Lipid bilayer [13]): 90% | Activity (Lipid bilayer [14]): 60% | Activity (Lipid bilayer [15]): 60%

CC(=O)NCC(=O)N[C@@H](Cc1ccccc1)C(=O)N1Cc2ccccc2C[C@H]1C(=O)N1CC2CCCCC2[C@@H]1C(=O)NCC(=O)N[C@H](CCCN)C(=O)N1Cc2ccccc2C[C@@H]1C(=O)N1CC2CCCCC2[C@H]1C(=O)NCC(=O)NC(Cc1ccccc1)C(=O)N1Cc2ccccc2C[C@@H]1C(=O)N1CC2CCCCC2[C@@H]1C(=O)NCC(=O)N[C@H](CCCN)C(=O)N1Cc2ccccc2C[C@@H]1C(=O)N[C@H](CCCN)C(=O)N[C@H](CCCN)C(=O)N[C@H](CCCN)C(=O)N[C@H](CCCN)C(N)=O (single isomer, unassigned)
Activity (Lipid bilayer [1]): 28 molar ratio | Kb (Lipid bilayer [2]): 191 M⁻¹ | Activity (Lipid bilayer [3]): 130 molar ratio | Activity (Lipid bilayer [4]): Active | Activity (Lipid bilayer [5]): Active | Activity (Lipid bilayer [7]): Active | Activity (Lipid bilayer [8]): Active | Activity (Lipid bilayer [9]): Active | Activity [10]: Active | Activity [11]: Active | Activity (Lipid bilayer [16]): Active | Activity (Lipid bilayer [17]): Active | Activity (Lipid bilayer [18]): 36 molar ratio

CC(=O)NCC(=O)N[C@@H](Cc1ccccc1)C(=O)N1Cc2ccccc2C[C@H]1C(=O)N1CC2CCCCC2[C@H]1C(=O)NCC(=O)N[C@@H](CCN)C(=O)N1Cc2ccccc2C[C@H]1C(=O)N1CC2CCCCC2[C@H]1C(=O)NCC(=O)N[C@@H](Cc1ccccc1)C(=O)N1Cc2ccccc2C[C@H]1C(=O)N1CC2CCCCC2[C@H]1C(=O)NCC(=O)N[C@@H](CCN)C(=O)N1Cc2ccccc2C[C@H]1C(=O)N[C@@H](CCN)C(=O)N[C@@H](CCN)C(=O)N[C@@H](CCN)C(=O)N[C@@H](CCN)C(N)=O (some centres not stated) (Ac-GF[Tic][Pro(3ξ,4ξ-(CH2)4)]G[Dab][Tic][Pro(3ξ,4ξ-(CH2)4)]GF[Tic][Pro(3ξ,4ξ-(CH2)4)]G[Dab][Tic][Dab][Dab][Dab][Dab]-NH2)
Activity (Lipid bilayer [1]): 20 molar ratio | Kb (Lipid bilayer [2]): 240 M⁻¹ | Activity (Lipid bilayer [3]): 130 molar ratio | Activity (Lipid bilayer [4]): Active | Activity (Lipid bilayer [5]): Active | Activity (Lipid bilayer [7]): Active | Activity (Lipid bilayer [8]): Active | Activity (Lipid bilayer [9]): Active | Activity [10]: Active | Activity [11]: Active | Activity (Lipid bilayer [16]): Active | Activity (Lipid bilayer [17]): Active | Activity (Lipid bilayer [18]): 22 molar ratio

CC(=O)NCC(=O)N[C@@H](Cc1ccccc1)C(=O)N1Cc2ccccc2C[C@H]1C(=O)N1CC2CCCCC2[C@H]1C(=O)NCC(=O)N[C@@H](CCCCN)C(=O)N1Cc2ccccc2C[C@H]1C(=O)N1CC2CCCCC2[C@H]1C(=O)NCC(=O)N[C@@H](Cc1ccccc1)C(=O)N1Cc2ccccc2C[C@H]1C(=O)N1CC2CCCCC2[C@H]1C(=O)NCC(=O)N[C@@H](CCCCN)C(=O)N1Cc2ccccc2C[C@H]1C(=O)N[C@@H](CCCCN)C(=O)N[C@@H](CCCCN)C(=O)N[C@@H](CCCCN)C(=O)N[C@@H](CCCCN)C(N)=O (some centres not stated) (Ac-GF[Tic][Pro(3ξ,4ξ-(CH2)4)]GK[Tic][Pro(3ξ,4ξ-(CH2)4)]GF[Tic][Pro(3ξ,4ξ-(CH2)4)]GK[Tic]KKKK-NH2)
Activity (Lipid bilayer [1]): 30 molar ratio | Kb (Lipid bilayer [2]): 211 M⁻¹ | Activity (Lipid bilayer [3]): 120 molar ratio | Activity (Lipid bilayer [4]): Active | Activity (Lipid bilayer [19]): Active | Activity (Lipid bilayer [7]): Active | Activity (Lipid bilayer [8]): Active | Activity (Lipid bilayer [20]): Active | Activity [10]: Active | Activity [11]: Active | Activity (Lipid bilayer [13]): 40% | Activity (Lipid bilayer [15]): 25% | Activity (Lipid bilayer [18]): 39 molar ratio

CC(=O)NCC(=O)N[C@@H](Cc1ccccc1)C(=O)N1Cc2ccccc2C[C@H]1C(=O)N1CC2CCCCC2[C@H]1C(=O)NCC(=O)N[C@@H](CN)C(=O)N1Cc2ccccc2C[C@H]1C(=O)N1CC2CCCCC2[C@H]1C(=O)NCC(=O)N[C@@H](Cc1ccccc1)C(=O)N1Cc2ccccc2C[C@H]1C(=O)N1CC2CCCCC2[C@H]1C(=O)NCC(=O)N[C@@H](CN)C(=O)N1Cc2ccccc2C[C@H]1C(=O)N[C@@H](CN)C(=O)N[C@@H](CN)C(=O)N[C@@H](CN)C(=O)N[C@@H](CN)C(N)=O (some centres not stated) (Ac-GF[Tic][Pro(3ξ,4ξ-(CH2)4)]G[Dap][Tic][Pro(3ξ,4ξ-(CH2)4)]GF[Tic][Pro(3ξ,4ξ-(CH2)4)]G[Dap][Tic][Dap][Dap][Dap][Dap]-NH2)
Activity (Lipid bilayer [1]): 55 molar ratio | Kb (Lipid bilayer [2]): 570 M⁻¹ | Activity (Lipid bilayer [3]): 55 molar ratio | Activity (Lipid bilayer [4]): Active | Activity (Lipid bilayer [21]): Active | Activity (Lipid bilayer [19]): Active | Activity (Lipid bilayer [7]): Active | Activity (Lipid bilayer [8]): Active | Activity (Lipid bilayer [20]): Active | Activity [10]: Active | Activity [11]: Active | Activity (Lipid bilayer [13]): 100% | Activity (Lipid bilayer [15]): 100%
